Data: patent publication US8101389B2, “Bacterial glutamine synthetases and methods of use” (Athenix Corp, priority 2006, dated 2012)

Tests used:
E. coli cells [1] = assay: Growth of E. coli transformants on M63 plates containing glufosinate; assay type: cell-based; details: for growth on glufosinate minimal M63+ agar media: 2, 10, 20, 50 and 100 mM glufosinate, DH5a E. coli cells
Protocol: To reconfirm that TKH2 and TKH3 confer resistance to 20 mM glufosinate, the purified plasmids were retransformed into DH5α cells. pUC18 was retransformed as a negative control. The transformation mixes were plated directly on M63 minimal plates with or without 20 mM glufosinate.
(§1) Mutants of the bacterial glutamine synthetase gene ags1 (SEQ ID NO:1) were created by error-prone mutagenesis using the GENEMORPH® Random Mutagenesis kit, and also using oligo-directed mutagenesis as known in the art. However, many methods are available for creating libraries of mutants. The resulting mutants were cloned into a pUC19 vector, electroporated into either XL-1 or DH5 alpha E. coli cells, and selected for growth on M63+ agar media containing antibiotic and 2, 10, or 20 mM glufosinate. Twenty-two clones were identified as growing on 20 mM glufosinate, and picked for further analysis.
(§2) ags1m2 was mutagenized by error-prone mutagenesis using GENEMORPH® II Random Mutagenesis kit (Stratagene) according to manufacturer's instructions. Mutagenized PCR product was digested with Sac I and Hind III, and ligated into a pUC vector, similarly digested with Sac I and Hind III. Ligations were transformed into E. coli cells, and plated onto M63+ plates containing antibiotic, and 125 mM glufosinate. Clones growing on 125 mM glufosinate plates were retested on 200 mM glufosinate plates, and compared to similar platings of ags1m1 and ags1m2. […] The DNA sequence of the ags open reading frame in pAX3439 was sequenced, and the gene designated as ags1m16. The DNA sequence of ags1m16 is represented herein as SEQ ID NO:31, and the amino acid sequence is represented herein as SEQ ID NO:32. AGS1m16 differs from AGS1m2 at a single amino acid at position H212 of the protein, which is modified from Histidine (‘H’) to Asparagine (‘N’), and contains a total of five amino acid changes relative to the wild-type AGS1 (see FIG. 1 and Table 3).
Clones expressing AGS1m17, AGS1m18, AGS1m19, or AGS1m20 were all found to be able to grow on plates containing 375 mM glufosinate, whereas no growth of clones expressing AGS1m16 was observed on plates containing 375 mM glufosinate.

[2] = test system: pea leaf glutamine synthetase; details: Leason et al. (1982); cited from earlier work
N[C@@H](CCC(=O)O)C(=O)O [3] = assay: enzymatic assay, kinetics of AGS1(AD-); assay type: biochemical, Serratia marcescens; details: other: Table 5
Protocol: ags1(ad-) (SEQ ID NO:43) encoding the AGS1(AD-) protein (SEQ ID NO:44), is a variant of ags1 in which the putative adenylylation site has been removed by mutating the tyrosine at position 398 of AGS1 to a phenylalanine by site directed mutagenesis.
(§3) The unmodified enzyme (AGS1) was compared to AGS1(AD-) and AGS1m17(AD-) by carrying out enzymatic assays on both enzymes following purification from E. coli. A glutamine synthetase enzyme from E. coli (GlnA) was also tested.

ags1 mutant E. coli = assay: Complementation of a glutamine synthase mutant; assay type: cell-based
Excerpt: Clones containing ags1m1 (pAX3421) and ags1m2 (pAX3422) were selected for further work.

[4] = test system: ags1 glutamine synthetase enzyme; assay: Enzymatic activity of purified 6Xhis-tagged glutamine synthetases with and without glufosinate; assay type: biochemical, Serratia marcescens; details: for enzymatic activity compared with wild type AGS1: 5 minute assay, absence of glufosinate
Excerpt: (§4) ags1m1 (pAX3421) and ags1m2 (pAX3422) were subcloned into E. coli expression vector pRSF1B (Invitrogen) so as to create an N-terminus encoding a 6Xhis tag, purified and characterized kinetically.

E. coli cells [5] = assay: Growth of E. coli transformants on M63 plates containing glufosinate; assay type: cell-based; details: 50 mM glyphosate (so in the source); versus the other variants except AGS1m16
N[C@@H](CCC(=O)O)C(=O)O [6] = assay: enzymatic assay, kinetics of AGS1m21; assay type: biochemical, Serratia marcescens; details: other: Table 4
Excerpt: (§5) ags1m21 (SEQ ID NO:41) encodes the AGS1m21 protein (SEQ ID NO:42). AGS1m21 is a variant of AGS1 that contains a similar amino acid change identified in other variants (V214M), as well as two novel mutations (N160S and G167R). This enzyme was expressed in E. coli, purified, and the kinetic values Km(glutamate) and Ki(glufosinate) of the variant measured by enzymatic assay.

N[C@@H](CCC(=O)O)C(=O)O [7] = assay: enzymatic assay, kinetics of AGS1m17(AD-); assay type: biochemical, Serratia marcescens; details: other: Table 5
Protocol: ags1m17(ad-) (SEQ ID NO:45) encoding the AGS1m17(AD-) protein (SEQ ID NO:46), is a variant of ags1m17 in which the putative adenylylation site has been removed by mutating the tyrosine at position 398 of AGS1 to a phenylalanine by site directed mutagenesis.
as §3

maize = assay: Leaf protein content of T0 transgenic maize plants (Bradford assay); assay type: in vivo
Excerpt: synags1m16 (SEQ ID NO:47) is an alternate DNA sequence that encodes the AGS1m16 protein (SEQ ID NO:32). synags1m16 was cloned into a shuttle vector to guide overexpression of AGS1m16 in maize. The vector places overexpression of synags1m16 under the control of the Trp5 promoter (U.S. application Ser. No. 11/377,318, filed Mar. 16, 2006 and herein incorporated by reference in its entirety).
Nine transgenic maize plants containing ags1m16 were generated. Protein expression of the AGS1m16 protein was confirmed by Western blot for each of these events.
Nitrogen use efficiency was evaluated for these events by determining the protein content of leaf samples isolated from the T0 plants after four weeks of growth in the greenhouse.
The protein in leaf samples was quantified as follows: Fifty milligrams of leaf material (fresh weight, no midrib) were freeze-dried for dry weight determination. The dehydrated leaf tissue was then ground in the presence of fresh Milli Q water using a MiniBeadbeater-96™ and 2.3 mm stainless-steel beads. The ground leaf tissue was filtered through a 0.45 μm Polyvinylidene Fluoride (PVDF) filter. Bio-Rad Protein Dye was added to leaf samples diluted in water, and a Bradford protein assay was performed and read in the spectrophotometer at 595 nm vs. internal protein standards included in the assay. […]

[8] = test system: E. coli cells with AGS1 variant AGS1m2 (pAX3422), F81S, P185S, G218S, I303N, SEQ ID NO:6; assay: growth of E. coli on herbicide plates, ags1m2; assay type: cell-based; details: 50 mM glyphosate; than the other variants, except AGS1m16
Protocol: as §1
as §2, with “AGS1m16 differs from AGS1m2 at a single amino acid at position H212 of the protein, which is modified from Histidine (‘H’) to Asparagine (‘N’), and contains a total of five amino acid changes relative to the wild-type AGS1 (see FIG. 1 and Table 3).” left out

[9] = test system: E. coli cells with AGS1 variant AGS1m4 (pAX3428), A151T, V214M, S276Y, SEQ ID NO:10; assay: growth of E. coli on herbicide plates, ags1m4; assay type: cell-based; details: than the other variants, except AGS1m16
Excerpt: Mutants of the bacterial glutamine synthetase gene ags1 (SEQ ID NO:1) were created by error-prone mutagenesis using the GENEMORPH® Random Mutagenesis kit, and also using oligo-directed mutagenesis as known in the art. However, many methods are available for creating libraries of mutants. […]

N[C@@H](CCC(=O)O)C(=O)O [10] = assay: enzymatic assay, kinetics of wild-type AGS1; assay type: biochemical, Serratia marcescens; details: other: Table 4
Excerpt: as §4, §5, §3

## ags1m7: ags1 variant G168C, V214M, K395R; SEQ ID NO:13/14
E. coli cells [1]
  growth on glufosinate minimal M63+ agar media: grow on 2, 10, 20, 50, and 100 mM glufosinate

## CS(=N)(=O)CCC(N)C(=O)O (stereo not drawn) [Methione sulfoximine (MSO), Methione sulfoximine]
[2]
  inhibition of pea leaf glutamine synthetase: mixed competitive inhibitor

## Serratia marcescens glutamine synthetase AGS1 variant AGS1(AD-), tyrosine 398 to phenylalanine, SEQ ID NO:44 (Serratia marcescens; Y398F)
N[C@@H](CCC(=O)O)C(=O)O [3]
  Km: 3.4 mM

## ags1m2: ags1 variant F81S, P185S, G218S, I303N; SEQ ID NO:5/6
ags1 mutant E. coli
  complementation of ags1 mutant E. coli: complement ags1 mutant E. coli
[4]
  enzymatic activity compared with wild type AGS1: relatively little enzymatic activity
[4]; overnight
  enzymatic reaction overnight: appeared to go to completion overnight
E. coli cells [5]
  speed of colony growth on 50 mM glyphosate: grow more quickly

## ags1m12: ags1 variant V207I, V214M; SEQ ID NO:23/24
E. coli cells [1]
  growth on glufosinate minimal M63+ agar media: grow on 2, 10, 20, 50, and 100 mM glufosinate

## Serratia marcescens glutamine synthetase AGS1 variant AGS1m21, N160S, G167R, V214M, SEQ ID NO:42 (Serratia marcescens; G167R/N160S/V214M)
N[C@@H](CCC(=O)O)C(=O)O [6]
  Km: 12.0 mM

## Serratia marcescens glutamine synthetase AGS1 variant AGS1m17(AD-), F81S, P185S, H212T, V214A, G218S, I303N plus tyrosine 398 to phenylalanine, SEQ ID NO:46 (Serratia marcescens; F81S/G218S/H212T/I303N/P185S/V214A/Y398F)
N[C@@H](CCC(=O)O)C(=O)O [7]
  Km: 14.1 mM

## ags1m4: ags1 variant A151T, V214M, S276Y; SEQ ID NO:9/10
E. coli cells [5]
  speed of colony growth on 50 mM glyphosate: grow more quickly

## ags1m1: glufosinate resistant ags1 variant V39I, V214M; SEQ ID NO:3/4
E. coli cells [1]
  growth on glufosinate minimal M63+ agar media: grow on 2, 10, 20, 50, and 100 mM glufosinate
ags1 mutant E. coli
  complementation of ags1 mutant E. coli: complement ags1 mutant E. coli
ags1 mutant E. coli; comparison of ags1m1 with ags1m2
  growth rate in complementation of ags1 mutant E. coli: growing at a faster rate than ags1m2
[4]
  enzymatic activity compared with wild type AGS1: indistinguishable from wild type enzyme

## ags1m11: ags1 variant G56A, V214E; SEQ ID NO:21/22
E. coli cells [1]
  growth on glufosinate minimal M63+ agar media: grow on 2, 10, 20, 50, and 100 mM glufosinate
E. coli cells [5]
  speed of colony growth on 50 mM glyphosate: grow more quickly

## ags1m16: ags1 variant F81S, P185S, H212N, G218S, I303N; SEQ ID NO:31/32
E. coli cells [1]
  resistance conferred upon E. coli, compared among variants: most resistance
E. coli cells [1]; M63+ plates, 200 mM glufosinate
  growth on 200 mM glufosinate plates: ability to grow on 200 mM glufosinate plates
maize; average of nine ags1m16 events
  Total protein, Avg.: 16.8 mg/g dry
maize; average, versus control plants without ags1m16
  higher protein content than the control plants: 24%

## O=C(O)CNCP(=O)(O)O [glyphosate]
[8]
  colony growth on 50 mM glyphosate versus other variants: grow more quickly
[9]
  colony growth on 50 mM glyphosate versus other variants: grow more quickly

## Serratia marcescens ATX 20345 glutamine synthetase AGS1, wild type, SEQ ID NO:2 (Serratia marcescens)
N[C@@H](CCC(=O)O)C(=O)O [10]
  Km: 3.4 mM
  Vmax: 0.10 nmol/min/µg
  kcat: 0.08 s⁻¹

## ags1m14: ags1 variant V150M, D166N, V214M, G289S, A420V; SEQ ID NO:27/28
E. coli cells [1]
  growth on glufosinate minimal M63+ agar media: grow on 2, 10, 20, 50, and 100 mM glufosinate
